Test results: PubChem BioAssay (NCI)
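In this assay, cells in 96-well plates receive the compound at five concentrations for 48 hours. Endpoints are linearly interpolated between the surrounding concentrations. GI50 is the concentration that inhibits growth by half. TGI: total growth inhibition.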

Assays:
Test in all cases: NCI-60 cell line screen, 48 h
[1] = system: 786-0 renal
[2] = system: A498 renal
[3] = system: A549 NSCLC
[4] = system: ACHN renal
[5] = system: BT-549 breast
[6] = system: CAKI-1 renal
[7] = system: CCRF-CEM leukemia
[8] = system: COLO 205 colon
[9] = system: DU-145 prostate
[10] = system: EKVX NSCLC
[11] = system: HCC-2998 colon
[12] = system: HCT-116 colon
[13] = system: HCT-15 colon
[14] = system: HL-60(TB) leukemia
[15] = system: HOP-62 NSCLC
[16] = system: HOP-92 NSCLC
[17] = system: HS 578T breast
[18] = system: HT29 colon
[19] = system: IGROV1 ovarian
[20] = system: K-562 leukemia
[21] = system: KM12 colon
[22] = system: LOX IMVI melanoma
[23] = system: M14 melanoma
[24] = system: MALME-3M melanoma
[25] = system: MCF7 breast
[26] = system: MDA-MB-231 breast
[27] = system: MDA-MB-435
[28] = system: MOLT-4 leukemia
[29] = system: NCI-H226 lung
[30] = system: NCI-H460 lung
[31] = system: NCI-H522 lung
[32] = system: NCI/ADR-RES ovarian
[33] = system: OVCAR-3 ovarian
[34] = system: OVCAR-4 ovarian
[35] = system: OVCAR-5 ovarian
[36] = system: OVCAR-8 ovarian
[37] = system: PC-3 prostate
[38] = system: RPMI-8226 leukemia
[39] = system: RXF 393 renal
[40] = system: SF-268 CNS
[41] = system: SF-295 CNS
[42] = system: SF-539 CNS
[43] = system: SK-MEL-2 melanoma
[44] = system: SK-MEL-28 melanoma
[45] = system: SK-MEL-5 melanoma
[46] = system: SK-OV-3 ovarian
[47] = system: SN12C renal
[48] = system: SNB-19 CNS
[49] = system: SNB-75 CNS
[50] = system: SR leukemia
[51] = system: SW-620 colon
[52] = system: T-47D breast
[53] = system: TK-10 renal
[54] = system: U251 CNS
[55] = system: UACC-257 melanoma
[56] = system: UACC-62 melanoma
[57] = system: UO-31 renal

N#Cc1c(-c2ccc(Cl)cc2)nc(SCc2ccc(F)cc2)nc1N1CCNCC1
GI50 [1]: 1.61 µM | TGI [1]: 3.2 µM | GI50 [2]: 14.3 µM | TGI [2]: 30.1 µM | GI50 [3]: 1.61 µM | TGI [3]: 3.06 µM | GI50 [4]: 1.8 µM | TGI [4]: 3.19 µM | GI50 [5]: 7.59 µM | TGI [5]: 22.1 µM | GI50 [6]: 1.4 µM | TGI [6]: 2.71 µM | GI50 [7]: 2.82 µM | TGI [7]: 8.28 µM | GI50 [8]: 1.75 µM | TGI [8]: 3.2 µM | GI50 [9]: 2.59 µM | TGI [9]: 6.54 µM | GI50 [10]: 4.98 µM | TGI [10]: 19.7 µM | GI50 [11]: 1.8 µM | TGI [11]: 3.22 µM | GI50 [12]: 1.72 µM | TGI [12]: 3.09 µM | GI50 [13]: 1.81 µM | TGI [13]: 3.45 µM | GI50 [14]: 1.83 µM | TGI [14]: 4.2 µM | GI50 [15]: 1.64 µM | TGI [15]: 3.26 µM | GI50 [16]: 1.61 µM | TGI [16]: 8.51 µM | GI50 [17]: 1.95 µM | TGI [17]: 4.45 µM | GI50 [18]: 1.74 µM | TGI [18]: 3.14 µM | GI50 [19]: 1.8 µM | TGI [19]: 3.57 µM | GI50 [20]: 2.09 µM | TGI [20]: 5.22 µM | GI50 [21]: 1.91 µM | TGI [21]: 3.82 µM | GI50 [22]: 1.7 µM | TGI [22]: 3.07 µM | GI50 [23]: 1.67 µM | TGI [23]: 3.09 µM | GI50 [24]: 1.69 µM | TGI [24]: 3.35 µM | GI50 [25]: 1.65 µM | TGI [25]: 3.29 µM | GI50 [26]: 1.83 µM | TGI [26]: 3.47 µM | GI50 [27]: 1.68 µM | TGI [27]: 3.05 µM | GI50 [28]: 2.43 µM | TGI [28]: 6.54 µM | GI50 [29]: 5.97 µM | TGI [29]: 24.9 µM | GI50 [30]: 1.97 µM | TGI [30]: 3.74 µM | GI50 [31]: 1.61 µM | TGI [31]: 3.08 µM | GI50 [32]: 1.73 µM | TGI [32]: 3.28 µM | GI50 [33]: 1.89 µM | TGI [33]: 3.71 µM | GI50 [34]: 1.78 µM | TGI [34]: 4.06 µM | GI50 [35]: 2.2 µM | TGI [35]: 6.25 µM | GI50 [36]: 1.84 µM | TGI [36]: 3.45 µM | GI50 [37]: 1.79 µM | TGI [37]: 3.75 µM | GI50 [38]: 2.19 µM | TGI [38]: 5.23 µM | GI50 [39]: 1.53 µM | TGI [39]: 2.87 µM | GI50 [40]: 2.27 µM | TGI [40]: 5.82 µM | GI50 [41]: 1.88 µM | TGI [41]: 3.47 µM | GI50 [42]: 1.71 µM | TGI [42]: 3.16 µM | GI50 [43]: 14.7 µM | TGI [43]: 29.3 µM | GI50 [44]: 1.74 µM | TGI [44]: 3.15 µM | GI50 [45]: 14.3 µM | TGI [45]: 29.5 µM | GI50 [46]: 10.4 µM | TGI [46]: 24.8 µM | GI50 [47]: 1.73 µM | TGI [47]: 3.33 µM | GI50 [48]: 2.21 µM | TGI [48]: 6.02 µM | GI50 [49]: 1.46 µM | TGI [49]: 2.83 µM | GI50 [50]: 1.99 µM | TGI [50]: 4.79 µM | GI50 [51]: 1.98 µM | TGI [51]: 4.04 µM | GI50 [52]: 1.69 µM | TGI [52]: 3.52 µM | GI50 [53]: 10.6 µM | TGI [53]: 23.9 µM | GI50 [54]: 1.69 µM | TGI [54]: 3.13 µM | GI50 [55]: 1.64 µM | TGI [55]: 3.13 µM | GI50 [56]: 1.76 µM | TGI [56]: 3.33 µM | GI50 [57]: 1.4 µM | TGI [57]: 2.83 µM
